This note sets out measurements from article PMC12814486 (Bioorganic & medicinal chemistry, 2025).

Each structure is given as a SMILES string. Converted amounts (≈) assume the structure as drawn.

For one data set, the target named is T1, human FAAH (Homo sapiens, UniProt O00519).
T1 sequence (O00519 1-579): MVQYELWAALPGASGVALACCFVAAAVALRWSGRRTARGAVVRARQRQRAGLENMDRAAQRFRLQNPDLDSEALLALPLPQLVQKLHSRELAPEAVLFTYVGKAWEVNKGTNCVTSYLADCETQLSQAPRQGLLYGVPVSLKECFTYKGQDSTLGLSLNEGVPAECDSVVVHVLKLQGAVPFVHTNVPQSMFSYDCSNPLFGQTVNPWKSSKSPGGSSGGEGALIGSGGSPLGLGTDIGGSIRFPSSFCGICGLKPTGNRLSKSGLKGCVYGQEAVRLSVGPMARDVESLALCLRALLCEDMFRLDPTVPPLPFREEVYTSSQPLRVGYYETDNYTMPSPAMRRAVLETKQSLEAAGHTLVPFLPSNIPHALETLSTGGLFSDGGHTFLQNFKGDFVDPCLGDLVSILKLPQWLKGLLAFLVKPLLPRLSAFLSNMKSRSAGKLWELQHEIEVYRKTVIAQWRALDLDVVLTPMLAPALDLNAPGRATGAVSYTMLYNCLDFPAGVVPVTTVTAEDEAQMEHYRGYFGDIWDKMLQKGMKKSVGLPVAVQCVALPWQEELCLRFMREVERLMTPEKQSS
Kind of data set: FAAH inhibition assay. The class given is biochemical.

A further data set is described as follows: Solubility assay. Particulars: sodium phosphate buffer, pH 7.4, aqueous buffer, kinetic from dmso stock. Type of data set: physicochemical.
The target in another data set is T2, rat sEH (Rattus norvegicus, UniProt P80299).
T2 sequence (P80299 1-554): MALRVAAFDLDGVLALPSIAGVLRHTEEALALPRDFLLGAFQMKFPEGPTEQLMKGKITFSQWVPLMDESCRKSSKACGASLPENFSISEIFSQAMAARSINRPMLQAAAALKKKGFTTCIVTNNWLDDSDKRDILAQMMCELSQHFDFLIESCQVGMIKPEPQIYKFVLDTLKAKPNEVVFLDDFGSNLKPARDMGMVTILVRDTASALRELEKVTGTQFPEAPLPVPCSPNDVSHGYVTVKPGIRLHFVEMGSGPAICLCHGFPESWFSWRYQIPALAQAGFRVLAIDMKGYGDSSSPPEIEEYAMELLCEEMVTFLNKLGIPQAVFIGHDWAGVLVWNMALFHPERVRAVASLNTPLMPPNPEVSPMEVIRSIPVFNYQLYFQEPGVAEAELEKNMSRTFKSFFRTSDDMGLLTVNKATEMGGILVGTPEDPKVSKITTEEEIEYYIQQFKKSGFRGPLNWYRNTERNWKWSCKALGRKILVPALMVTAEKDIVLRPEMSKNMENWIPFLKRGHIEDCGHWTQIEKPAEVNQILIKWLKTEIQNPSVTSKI
Kind of data set: sEH inhibition assay. The class given is biochemical.

The target of the next data set is T3, mouse sEH (Mus musculus, UniProt P34914).
T3 sequence (P34914 1-554): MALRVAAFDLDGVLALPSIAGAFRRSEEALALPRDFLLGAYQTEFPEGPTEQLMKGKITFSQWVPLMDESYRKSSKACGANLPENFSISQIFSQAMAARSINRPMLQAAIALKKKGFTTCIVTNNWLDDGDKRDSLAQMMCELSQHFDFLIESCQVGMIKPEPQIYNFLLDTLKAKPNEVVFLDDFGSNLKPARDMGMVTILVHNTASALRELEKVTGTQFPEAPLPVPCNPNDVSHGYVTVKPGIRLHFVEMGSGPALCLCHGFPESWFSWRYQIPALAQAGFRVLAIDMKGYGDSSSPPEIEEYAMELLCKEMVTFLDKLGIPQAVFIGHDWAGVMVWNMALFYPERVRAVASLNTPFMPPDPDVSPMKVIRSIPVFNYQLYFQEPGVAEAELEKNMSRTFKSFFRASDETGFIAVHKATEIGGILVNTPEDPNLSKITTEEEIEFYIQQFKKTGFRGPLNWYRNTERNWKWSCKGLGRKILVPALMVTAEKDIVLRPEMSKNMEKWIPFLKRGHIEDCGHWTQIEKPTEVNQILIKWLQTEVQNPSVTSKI
Kind of data set: sEH inhibition assay. Type of data set: biochemical.

The target in another data set is T4, human sEH (Homo sapiens, UniProt P34913).
T4 sequence (P34913 1-555): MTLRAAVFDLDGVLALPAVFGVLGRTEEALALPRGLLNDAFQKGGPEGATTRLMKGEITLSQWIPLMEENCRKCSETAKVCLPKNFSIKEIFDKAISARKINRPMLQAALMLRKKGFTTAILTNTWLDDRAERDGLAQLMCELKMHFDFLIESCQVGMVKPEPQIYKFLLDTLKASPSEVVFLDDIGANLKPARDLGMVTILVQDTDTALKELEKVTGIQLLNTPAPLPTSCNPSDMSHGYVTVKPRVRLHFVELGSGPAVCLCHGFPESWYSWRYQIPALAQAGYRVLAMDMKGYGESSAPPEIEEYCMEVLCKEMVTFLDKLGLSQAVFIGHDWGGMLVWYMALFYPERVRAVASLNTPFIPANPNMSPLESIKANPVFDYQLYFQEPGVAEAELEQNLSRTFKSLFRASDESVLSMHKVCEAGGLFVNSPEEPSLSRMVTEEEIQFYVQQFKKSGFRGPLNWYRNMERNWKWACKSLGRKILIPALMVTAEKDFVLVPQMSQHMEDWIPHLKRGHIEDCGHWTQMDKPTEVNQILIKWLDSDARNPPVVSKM
As to the kind of experiment: sEH inhibition assay. The class given is biochemical.

In the case of `O=C(Nc1ccc(-c2ncccn2)cc1)C1CCN(S(=O)(=O)c2ccccc2Cl)CC1` [Compound 4a, 1-((2-chlorophenyl)sulfonyl)-N-(4-(pyrimidin-2-yl)phenyl)piperidine-4-carboxamide], the IC50 – broadly, the midpoint of a concentration-inhibition curve – on human FAAH was found to be 0.175 µM; against rat sEH, 0.0181 µM; against mouse sEH it was 0.342 µM; at human sEH, 0.0197 µM. Further, the solubility (as a rule, the dissolved amount per volume that the medium holds) in “Solubility assay” is above 63 µM.
For the compound `O=C(Nc1ccc(-c2cncnc2)cc1)C1CCN(S(=O)(=O)c2ccccc2Cl)CC1` [Compound 4b, 1-((2-chlorophenyl)sulfonyl)-N-(4-(pyrimidin-5-yl)phenyl)piperidine-4-carboxamide], the IC50 against human FAAH was 0.196 µM; on rat sEH it was 0.0049 µM; on mouse sEH, 0.904 µM; at human sEH, 0.0056 µM. Also, the solubility in “Solubility assay” was above 63 µM.
The like results for `O=C(Nc1ccc(-c2ncc(F)cn2)cc1)C1CCN(S(=O)(=O)c2ccccc2Cl)CC1` [Compound 4c, 1-((2-chlorophenyl)sulfonyl)-N-(4-(5-fluoropyrimidin-2-yl)phenyl)piperidine-4-carboxamide] were, in that order, 0.29 µM, 0.0477 µM, 0.0825 µM, 0.0234 µM and 31 to 63 µM (≈ 14.7 to 29.9 µg/mL).
For `O=C(Nc1ccc(-c2ncc(Cl)cn2)cc1)C1CCN(S(=O)(=O)c2ccccc2Cl)CC1` [Compound 4d, 1-((2-chlorophenyl)sulfonyl)-N-(4-(5-chloropyrimidin-2-yl)phenyl)piperidine-4-carboxamide], the IC50 worked out at 0.46 µM on human FAAH, 0.0823 µM at rat sEH, 0.089 µM at mouse sEH and 0.0894 µM at human sEH. This compound also registered a solubility in “Solubility assay” of 31 to 63 µM (≈ 15.2 to 31 µg/mL).
In the case of `Cc1cnc(-c2ccc(NC(=O)C3CCN(S(=O)(=O)c4ccccc4Cl)CC3)cc2)nc1` [Compound 4e, 1-((2-chlorophenyl)sulfonyl)-N-(4-(5-methylpyrimidin-2-yl)phenyl)piperidine-4-carboxamide], the IC50 is 0.308 µM against human FAAH, 0.0739 µM at rat sEH, 0.0798 µM on mouse sEH and 0.0736 µM on human sEH. The solubility in “Solubility assay” was in the range of 31 to 63 µM (≈ 14.6 to 29.7 µg/mL).
As for `COc1cnc(-c2ccc(NC(=O)C3CCN(S(=O)(=O)c4ccccc4Cl)CC3)cc2)nc1` [Compound 4f, 1-((2-chlorophenyl)sulfonyl)-N-(4-(5-methoxypyrimidin-2-yl)phenyl)piperidine-4-carboxamide], the IC50 was determined as 0.181 µM at human FAAH, 0.0559 µM at rat sEH, 0.0324 µM against mouse sEH and 0.0263 µM at human sEH. In addition, in “Solubility assay”, the solubility lay in the range of 31 to 63 µM (≈ 15.1 to 30.7 µg/mL).
`O=C(Nc1ccc(-c2cnc(F)nc2)cc1)C1CCN(S(=O)(=O)c2ccccc2Cl)CC1` [Compound 4g, 1-((2-chlorophenyl)sulfonyl)-N-(4-(2-fluoropyrimidin-5-yl)phenyl)piperidine-4-carboxamide]: the IC50 on human FAAH worked out at 0.175 µM; on rat sEH, 0.0437 µM; against mouse sEH, 0.161 µM; at human sEH, 0.0272 µM. The solubility in the data set “Solubility assay” is 31 to 63 µM (≈ 14.7 to 29.9 µg/mL).
For `O=C(Nc1ccc(-c2cnc(Cl)nc2)cc1)C1CCN(S(=O)(=O)c2ccccc2Cl)CC1` [Compound 4h, 1-((2-chlorophenyl)sulfonyl)-N-(4-(2-chloropyrimidin-5-yl)phenyl)piperidine-4-carboxamide], the IC50 at human FAAH is 0.258 µM; against rat sEH, 0.0715 µM; at mouse sEH, 0.51 µM; on human sEH it was 0.0326 µM. In addition, the solubility in the data set “Solubility assay” lay within 31 to 63 µM (≈ 15.2 to 31 µg/mL).
For `Cc1ncc(-c2ccc(NC(=O)C3CCN(S(=O)(=O)c4ccccc4Cl)CC3)cc2)cn1` [Compound 4i, 1-((2-chlorophenyl)sulfonyl)-N-(4-(2-methylpyrimidin-5-yl)phenyl)piperidine-4-carboxamide], in that order: 1.24 µM, 0.0121 µM, 0.214 µM, 0.0056 µM and 31 to 63 µM (≈ 14.6 to 29.7 µg/mL).
The like results for `COc1ncc(-c2ccc(NC(=O)C3CCN(S(=O)(=O)c4ccccc4Cl)CC3)cc2)cn1` [Compound 4j, 1-((2-chlorophenyl)sulfonyl)-N-(4-(2-methoxypyrimidin-5-yl)phenyl)piperidine-4-carboxamide] were, in that order, 0.462 µM, 0.0179 µM, 0.379 µM, 0.0077 µM and 31 to 63 µM (≈ 15.1 to 30.7 µg/mL).
For `O=C(Nc1ccc(-c2cnc(C(F)(F)F)nc2)cc1)C1CCN(S(=O)(=O)c2ccccc2Cl)CC1` [Compound 4k, 1-((2-chlorophenyl)sulfonyl)-N-(4-(2-(trifluoromethyl)pyrimidin-5-yl)phenyl)piperidine-4-carboxamide], in that order: 0.327 µM, 0.134 µM, 1.13 µM, 0.0946 µM and 31 to 63 µM (≈ 16.3 to 33.1 µg/mL).
With `O=C(Nc1ccc(-c2cnc(Cl)nc2Cl)cc1)C1CCN(S(=O)(=O)c2ccccc2Cl)CC1` [Compound 4l, 1-((2-chlorophenyl)sulfonyl)-N-(4-(2,4-dichloropyrimidin-5-yl)phenyl)piperidine-4-carboxamide], the IC50 against human FAAH was 2 µM; on rat sEH it was 0.0154 µM; against mouse sEH, 0.0404 µM; at human sEH it was 0.0788 µM. Also, the solubility in “Solubility assay” is 31 to 63 µM (≈ 16.3 to 33.1 µg/mL).
The like results for `O=C(Nc1ccc(-c2nnn[nH]2)cc1)C1CCN(S(=O)(=O)c2ccccc2Cl)CC1` [Compound 4n, N-(4-(1H-tetrazol-5-yl)phenyl)-1-((2-chlorophenyl)sulfonyl)piperidine-4-carboxamide] were, in that order, above 10 µM, 0.0834 µM, 0.202 µM, 0.232 µM and 31 to 63 µM (≈ 13.9 to 28.2 µg/mL).
For `O=C(Nc1ccc(-c2nnnn2C2CC2)cc1)C1CCN(S(=O)(=O)c2ccccc2Cl)CC1` [Compound 4o, 1-((2-chlorophenyl)sulfonyl)-N-(4-(1-cyclopropyl-1H-tetrazol-5-yl)phenyl)piperidine-4-carboxamide], in that order: above 10 µM, 0.0296 µM, 0.0125 µM, 0.022 µM and 31 to 63 µM (≈ 15.1 to 30.7 µg/mL).
In the data set “Solubility assay”, `NC(=O)c1cccc(-c2cccc(OC(=O)NC3CCCCC3)c2)c1` [URB597, reference compound] came in with a solubility above 63 µM.
